From patent US20140011799A1 (Bristol-Myers Squibb Company, priority 2012, published 2014) come the findings set out here.

The term IC50 denotes the point on the concentration scale where inhibition reaches its midpoint.

This test has as its target T1, Endothelial lipase (EL) (Homo sapiens, UniProt Q9Y5X9).
T1 construct: HT-1080 cells that were transformed using RAGE technology (Athersys) to overexpress endogenous EL; endogenous in cells; conditioned medium used
T1 sequence (Q9Y5X9 21-500): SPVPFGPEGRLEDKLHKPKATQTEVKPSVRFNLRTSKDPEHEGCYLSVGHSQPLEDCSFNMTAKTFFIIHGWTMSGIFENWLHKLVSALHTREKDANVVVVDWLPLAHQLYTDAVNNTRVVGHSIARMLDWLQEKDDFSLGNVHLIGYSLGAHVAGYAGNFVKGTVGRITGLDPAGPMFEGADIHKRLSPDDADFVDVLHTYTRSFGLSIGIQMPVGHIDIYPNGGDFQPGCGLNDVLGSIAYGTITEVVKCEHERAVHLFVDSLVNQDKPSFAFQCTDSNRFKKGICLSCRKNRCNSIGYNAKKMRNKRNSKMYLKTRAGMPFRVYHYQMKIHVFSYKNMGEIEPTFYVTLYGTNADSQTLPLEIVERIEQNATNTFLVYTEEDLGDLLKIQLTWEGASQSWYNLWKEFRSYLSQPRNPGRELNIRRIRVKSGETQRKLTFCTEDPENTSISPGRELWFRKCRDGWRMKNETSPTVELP
The test is described as follows: Endothelial lipase (EL) enzymatic assay, fluorescent substrate A10070 in DMPG vesicles. Format: biochemical. The conditions noted are these: EL from conditioned media of HT-1080 cells; compound preincubated 30 min at 37° C; read-out: EL IC50. The procedure:
Endothelial lipase (EL) and hepatic lipase (HL) activities were measured using a fluorescent substrate, A10070, (Invitrogen, CA) doped into an artificial vesicle containing DMPG (Avanti Polar Lipids) as the excipient. Vesicles were prepared by combining 571 μL of 29 mM DMPG in a 1:1 mixture of MeOH and CHCl3 with 2000 μL of 1 mM A10070 in a 1:1 mixture of MeOH and CHCl3. The mixture was dried under nitrogen in multiple vials then resuspended in 20 mL total volume of 50 mM HEPES pH 8.0 buffer containing 50 mM NaCl and 0.2 mM EDTA. The sample was allowed to sit at room temperature for 15 min and then was sonicated 3×4 mins on ice with a Branson Sonicator using duty cycle 1. This preparation provides vesicles with a mole fraction of 0.11 for the FRET substrate.
The enzymatic assay was measured using 384-well white Optiplates. Each well contained 20 μL of assay buffer (50 mM HEPES pH 8.0, 50 mM NaCl and 1 mM CaCl2) and 0.25 μL of a DMSO solution containing a compound of interest. EL or HL (10 μL) was added and allowed to incubate with the compound for 30 min at 37° C. The source of EL was conditioned media obtained from HT-1080 cells that were transformed using RAGE technology (Athersys) to overexpress endogenous EL, and HL was partially purified from conditioned media obtained from COS cells overexpressing HL. The reaction was started by the addition of 10 μL of a 1:10 dilution of vesicles. The final total reaction volume was […]. The reaction rates were measured on a Gemini plate reader with an excitation wavelength of 490 nm and an emission wavelength of 530 nm. Readings were taken over a period of 60 minutes, and the slope between 300 and 900 secs of the readout was used to calculate the rate of the reaction.
For `CS(=O)(=O)C(c1nnc(CC2SC(=O)NC2=O)o1)c1nc2ccc(-c3ccc(F)nc3)cc2s1` (stereo not drawn) [Example 3, 5-((5-((6-(6-fluoro-3-pyridinyl)-1,3-benzothiazol-2-yl)(methylsulfonyl)methyl)-1,3,4-oxadiazol-2-yl)methyl)-1,3-thiazolidine-2,4-dione], the IC50 was less than 10 nM.

For the molecule `CC1(Cc2nnc(Cc3nc4ccc(-c5ccccc5)cc4s3)o2)NC(=O)N(CC(F)(F)F)C1=O` (single isomer, unassigned; isomer b) [Example 26, 5-Methyl-5-((5-((6-phenylbenzo[d]thiazol-2-yl)methyl)-1,3,4-oxadiazol-2-yl)methyl)-3-(2,2,2-trifluoroethyl)imidazolidine-2,4-dione (Isomer B)], the IC50 was less than 10 nM.

As to `NS(=O)(=O)NCc1nnc(C(c2nc3ccc(-c4ccccc4)cc3s2)S(=O)(=O)Cc2ccc(Cl)cc2)o1` (stereo not drawn) [Example 58, N-((5-(((4-chlorobenzyl)sulfonyl)(6-phenyl-1,3-benzothiazol-2-yl)methyl)-1,3,4-oxadiazol-2-yl)methyl)sulfamide], the IC50 is less than 10 nM.

Turning to `CC1(Cc2nnc(C(c3nc4ccc(-c5ccccc5)cc4s3)S(C)(=O)=O)o2)NC(=O)NC1=O` (stereo not drawn) [Example 29, 5-methyl-5-((5-((methylsulfonyl)(6-phenyl-1,3-benzothiazol-2-yl)methyl)-1,3,4-oxadiazol-2-yl)methyl)-2,4-imidazolidinedione], the half-inhibitory concentration (IC50) was less than 10 nM.

Turning to `N#CC1(NC(=O)Cc2nnc(C(c3nc4ccc(-c5ccccc5)cc4s3)S(=O)(=O)Cc3ccccc3)o2)CC1` (stereo not drawn) [Example 40, 2-(5-((benzylsulfonyl)(6-phenylbenzo[d]thiazol-2-yl)methyl)-1,3,4-oxadiazol-2-yl)-N-(1-cyanocyclopropyl)acetamide], the half-maximal inhibitory concentration (IC50) was less than 10 nM.

For the molecule `CS(=O)(=O)C(c1nnc(CN)o1)c1nc2ccc(-c3ccccc3)cc2s1` (stereo not drawn) [Example 85, (5-((Methylsulfonyl)(6-phenylbenzo[d]thiazol-2-yl)methyl)-1,3,4-oxadiazol-2-yl)methanamine], the IC50 worked out at 48 nM.

Regarding `CS(=O)(=O)C(c1nnc(CNS(N)(=O)=O)o1)c1nc2ccc(-c3ccccc3)cc2s1` (stereo not drawn) [Example 46, N-({5-[(M ethylsulfonyl)(6-phenyl-1,3-benzothiazol-2-yl)methyl]-1,3,4-oxadiazol-2-yl}methyl)sulfuric diamide], the concentration for half-maximal inhibition (IC50) was less than 10 nM.

On to `CC1(Cc2nnc(C(c3nc4ccc(-c5ccc(F)nc5)cc4s3)S(C)(=O)=O)o2)NC(=O)NC1=O` (single isomer, unassigned; isomer b) [Example 22, 5-((5-((6-(6-fluoropyridin-3-yl)benzo[d]thiazol-2-yl)(methylsulfonyl)methyl)-1,3,4-oxadiazol-2-yl)methyl)-5-methylimidazolidine-2,4-dione (Isomer B)], for which the IC50 was found to be 27 nM.

In the case of `NS(=O)(=O)NCc1nnc(C(c2nc3ccc(-c4ccccc4)cc3s2)S(=O)(=O)Cc2ccccc2F)o1` (stereo not drawn) [Example 51, N-((5-(((2-fluorobenzyl)sulfonyl)(6-phenyl-1,3-benzothiazol-2-yl)methyl)-1,3,4-oxadiazol-2-yl)methyl)sulfamide], the half-maximal inhibitory concentration (IC50) was less than 10 nM.

Consider `CC1(Cc2nnc(C(c3nc4ccc(-c5ccc(F)nc5)cc4s3)S(C)(=O)=O)o2)SC(=O)NC1=O` (single isomer, unassigned; isomer b) [Example 18, 5-((5-((6-(6-fluoropyridin-3-yl)benzo[d]thiazol-2-yl)(methylsulfonyl)methyl)-1,3,4-oxadiazol-2-yl)methyl)-5-methylthiazolidine-2,4-dione (Isomer B)], for which the IC50 was less than 10 nM.

`C[C@]1(Cc2nnc(C(c3nc4ccc(-c5ccccc5)cc4s3)S(C)(=O)=O)o2)OC(=O)NC1=O` (stereo partly drawn) [Example 42, (5R)-5-Methyl-5-((5-((methylsulfonyl)(6-phenylbenzo[d]thiazol-2-yl)methyl)-1,3,4-oxadiazol-2-yl)methyl)oxazolidine-2,4-dione]: the IC50 is less than 10 nM.

As to `CC(C)C(=O)NCc1nnc(C(c2nc3ccc(-c4ccccc4)cc3s2)S(C)(=O)=O)o1` (stereo not drawn) [Example 88, N-((5-((Methylsulfonyl)(6-phenylbenzo[d]thiazol-2-yl)methyl)-1,3,4-oxadiazol-2-yl)methyl)isobutyramide], the IC50 was determined as 195 nM.

Turning to `Cc1ccccc1CS(=O)(=O)C(c1nnc(CNS(N)(=O)=O)o1)c1nc2ccc(-c3ccccc3)cc2s1` (stereo not drawn) [Example 70, N-((5-(((2-methylbenzyl)sulfonyl)(6-phenyl-1,3-benzothiazol-2-yl)methyl)-1,3,4-oxadiazol-2-yl)methyl) sulfamide], the IC50 is less than 10 nM.

On to `NS(=O)(=O)NCc1nnc(C(c2nc3ccc(-c4ccccc4)cc3s2)S(=O)(=O)CCC(F)(F)F)o1` (stereo not drawn) [Example 50, N-[(5-{(6-phenyl-1,3-benzothiazol-2-yl) [(3,3,3-trifluoropropyl)sulfonyl]methyl}-1,3,4-oxadiazol-2-yl)methyl]sulfuric diamide], for which the IC50 was less than 10 nM.

As to `CC(c1nnc(CNS(N)(=O)=O)o1)(c1nc2ccc(-c3ccccc3)cc2s1)S(C)(=O)=O` (single isomer, unassigned) [Reference 1, Isomer B, N-((5-(1-(Methylsulfonyl)-1-(6-phenyl-1,3-benzothiazol-2-yl)ethyl)-1,3,4-oxadiazol-2-yl)methyl)sulfamide, reference compound], the half-inhibitory concentration (IC50) amounted to 5200 nM.

As to `NS(=O)(=O)NCc1nnc(C(c2nc3ccc(-c4ccccc4)cc3s2)S(=O)(=O)C2CCOCC2)o1` (stereo not drawn) [Example 53, N-({5-[6-phenyl-1,3-benzothiazol-2-yl (tetrahydro-2H-pyran-4-ylsulfonyl)methyl]-1,3,4-oxadiazol-2-yl}methyl) sulfuric diamide], the IC50 was less than 10 nM.

As to `NS(=O)(=O)Cc1nnc(C(c2nc3c(F)cc(-c4ccccc4)cc3s2)S(=O)(=O)Cc2ccc(C(F)(F)F)cc2)o1` (stereo not drawn) [Example 90, (5-((4-Fluoro-6-phenylbenzo[d]thiazol-2-yl)((4-(trifluoromethyl)benzyl)sulfonyl)methyl)-1,3,4-oxadiazol-2-yl)methanesulfonamide], the concentration for half-maximal inhibition (IC50) was less than 10 nM.

On to `CS(=O)(=O)C(c1nnc(CS(N)(=O)=O)o1)c1nc2ccc(-c3ccccc3)cc2s1` (stereo not drawn) [Example 89, (5-((Methylsulfonyl)(6-phenylbenzo[d]thiazol-2-yl)methyl)-1,3,4-oxadiazol-2-yl)methanesulfonamide], for which the 50% inhibitory concentration (IC50) was less than 10 nM.

For the molecule `NS(=O)(=O)NCc1nnc(C(c2nc3ccc(-c4ccccc4)cc3s2)S(=O)(=O)Cc2cccc(F)c2)o1` (stereo not drawn) [Example 56, N-((5-(((3-fluorobenzyl)sulfonyl)(6-phenyl-1,3-benzothiazol-2-yl)methyl)-1,3,4-oxadiazol-2-yl)methyl)sulfamide], the IC50 was less than 10 nM.

For the molecule `NS(=O)(=O)NCc1nnc(C(c2nc3ccc(-c4ccccc4)cc3s2)S(=O)(=O)C2CCCC2)o1` (stereo not drawn) [Example 67, N-({5-[(cyclopentylsulfonyl) (6-phenyl-1,3-benzothiazol-2-yl)methyl]-1,3,4-oxadiazol-2-yl}methyl)sulfuric diamide], the IC50 was less than 10 nM.

`NS(=O)(=O)NCc1nnc(C(c2nc3ccc(-c4ccc(F)nc4)cc3s2)S(=O)(=O)Cc2ccccc2)o1` (stereo not drawn) [Example 75, N-((5-((benzylsulfonyl) (6-(6-fluoro-3-pyridinyl)-1,3-benzothiazol-2-yl)methyl)-1,3,4-oxadiazol-2-yl)methyl)sulfamide]: the IC50 was less than 10 nM.

In the case of `CC(C)(C)OC(=O)N1CC(c2nnc(C(c3nc4ccc(-c5ccccc5)cc4s3)S(=O)(=O)Cc3ccccc3)o2)C1` (stereo not drawn) [Example 33, tert-butyl 3-(5-((benzylsulfonyl) (6-phenylbenzo[d]thiazol-2-yl)methyl)-1,3,4-oxadiazol-2-yl)azetidine-1-carboxylate], the half-maximal inhibitory concentration (IC50) is 14 nM.

For `COc1nc(-c2nnc(C(c3nc4ccc(-c5ccccc5)cc4s3)S(=O)(=O)CCC(F)(F)F)o2)c(O)c(=O)[nH]1` (stereo not drawn) [Example 44, 5-Hydroxy-2-methoxy-6-(5-((6-phenylbenzo[d]thiazol-2-yl)((3,3,3-trifluoropropyl)sulfonyl)methyl)-1,3,4-oxadiazol-2-yl)pyrimidin-4(3H)-one], the IC50 is 77 nM.

Regarding `CN(Cc1nnc(C(c2nc3ccc(-c4ccccc4)cc3s2)S(=O)(=O)Cc2ccccc2)o1)S(N)(=O)=O` (stereo not drawn) [Example 81], the IC50 is 32 nM.
